{"source": "ChEMBL document CHEMBL5126592", "about": "“Design, synthesis and activity against drug-resistant bacteria evaluation of C-20, C-23 modified 5-O-mycaminosyltylonolide derivatives” (Eur J Med Chem, 2022)", "key": {"[1]": {"test": "Genotoxicity in Salmonella typhimurium TA98 assessed as number of revertants at 8x10^-6 mg/plate incubated for 72 hrs in presence of liver S9 fraction by Ames test (reference value: 43.67+/- 7.1)", "assay_type": "toxicity, subcellular", "conditions": "salmonella enterica subsp. enterica serovar typhimurium, s9, 72 h"}, "[2]": {"test": "Genotoxicity in Salmonella typhimurium TA98 assessed as number of revertants at 1x10^-3 mg/plate incubated for 72 hrs in presence of liver S9 fraction by Ames test (reference value: 43.67+/- 7.1)", "assay_type": "toxicity, subcellular", "conditions": "salmonella enterica subsp. enterica serovar typhimurium, s9, 72 h"}, "[3]": {"test": "Genotoxicity in Salmonella typhimurium TA98 assessed as number of revertants at 2x10^-4 mg/plate incubated for 72 hrs in presence of liver S9 fraction by Ames test (reference value: 43.67+/- 7.1)", "assay_type": "toxicity, subcellular", "conditions": "salmonella enterica subsp. enterica serovar typhimurium, s9, 72 h"}, "[4]": {"test": "Genotoxicity in Salmonella typhimurium TA98 assessed as number of revertants at 8x10^-6 mg/plate incubated for 72 hrs in absence of liver S9 fraction by Ames test (reference value: 57.33 +/- 3.06)", "assay_type": "toxicity", "conditions": "salmonella enterica subsp. enterica serovar typhimurium, s9, 72 h"}, "[5]": {"test": "Genotoxicity in Salmonella typhimurium TA98 assessed as number of revertants at 4x10^-5 mg/plate incubated for 72 hrs in absence of liver S9 fraction by Ames test (reference value: 57.33 +/- 3.06)", "assay_type": "toxicity", "conditions": "salmonella enterica subsp. enterica serovar typhimurium, s9, 72 h"}, "[6]": {"test": "Genotoxicity in Salmonella typhimurium TA98 assessed as number of revertants at 2x10^-4 mg/plate incubated for 72 hrs in absence of liver S9 fraction by Ames test (reference value: 57.33 +/- 3.06)", "assay_type": "toxicity", "conditions": "salmonella enterica subsp. enterica serovar typhimurium, s9, 72 h"}, "[7]": {"test": "Toxicity in Kunming mouse infected with Staphylococcus aureus ATCC 25923 assessed as normal alveolar wall thickness at 20 to 40 mg/kg, iv measured after 1 hr by hematoxylin and eosin staining based microscopic analysis", "assay_type": "organism-based", "conditions": "in vivo, dose 20-40 mg/kg"}, "[8]": {"system": "Staphylococcus aureus", "test": "Antibacterial activity against Staphylococcus aureus ATCC 25923 infected in kunming mouse assessed as reduction in lung congestion at 20 to 40 mg/kg, iv measured after 1 hr by hematoxylin and eosin staining based microscopic analysis", "assay_type": "functional, organism-based", "conditions": "dose 20-40 mg/kg"}, "[9]": {"system": "Staphylococcus aureus", "test": "Antibacterial activity against Staphylococcus aureus ATCC 29213 incubated for 16 to 20 hrs using 10^3 CFU/ml bacterial inoculum by broth microdilution method", "assay_type": "functional", "conditions": "time 16-20 hrs"}, "[10]": {"system": "Escherichia coli", "test": "Antibacterial activity against Escherichia coli ATCC 25922 at pH 7 incubated for 16 to 20 hrs by broth microdilution method", "assay_type": "functional", "conditions": "time 16-20 hrs"}, "[11]": {"system": "Escherichia coli", "test": "Antibacterial activity against Escherichia coli ATCC 25922 incubated for 16 to 20 hrs in absence of foetal bovine serum by broth microdilution method", "assay_type": "functional", "conditions": "time 16-20 hrs"}, "[12]": {"system": "Escherichia coli", "test": "Antibacterial activity against Escherichia coli ATCC 25922 incubated for 16 to 20 hrs by broth microdilution method", "assay_type": "functional", "conditions": "time 16-20 hrs"}, "[13]": {"system": "Streptococcus dysgalactiae", "test": "Antibacterial activity against Streptococcus dysgalactiae incubated for 16 to 20 hrs by broth microdilution method", "assay_type": "functional", "conditions": "time 16-20 hrs"}, "[14]": {"system": "Staphylococcus chromogenes", "test": "Antibacterial activity against Staphylococcus chromogenes incubated for 16 to 20 hrs by broth microdilution method", "assay_type": "functional", "conditions": "time 16-20 hrs"}, "[15]": {"system": "Pseudomonas aeruginosa", "test": "Antibacterial activity against Pseudomonas aeruginosa LTP-3 incubated for 16 to 20 hrs by broth microdilution method", "assay_type": "functional", "conditions": "time 16-20 hrs"}, "[16]": {"system": "Escherichia coli", "test": "Bactericidal activity against Escherichia coli ATCC 25922 incubated for 20 to 24 hrs by CLSI based analysis", "assay_type": "functional", "conditions": "time 20-24 hrs"}, "[17]": {"system": "Staphylococcus aureus", "test": "Bactericidal activity against Staphylococcus aureus ATCC 29213 incubated for 20 to 24 hrs by CLSI based analysis", "assay_type": "functional", "conditions": "time 20-24 hrs"}, "[18]": {"system": "Staphylococcus aureus", "test": "Antibacterial activity against Staphylococcus aureus ATCC 29213 incubated for 16 to 20 hrs by broth microdilution method", "assay_type": "functional", "conditions": "time 16-20 hrs"}, "[19]": {"system": "Staphylococcus aureus", "test": "Antibacterial activity against Staphylococcus aureus ATCC 29213 at pH 6.8 incubated for 16 to 20 hrs by broth microdilution method", "assay_type": "functional", "conditions": "time 16-20 hrs"}, "[20]": {"system": "Staphylococcus aureus", "test": "Antibacterial activity against Staphylococcus aureus ATCC 29213 at pH 8.2 incubated for 16 to 20 hrs by broth microdilution method", "assay_type": "functional", "conditions": "time 16-20 hrs"}, "[21]": {"system": "Staphylococcus aureus", "test": "Antibacterial activity against Staphylococcus aureus ATCC 29213 at pH 8.4 incubated for 16 to 20 hrs by broth microdilution method", "assay_type": "functional", "conditions": "time 16-20 hrs"}, "[22]": {"system": "Escherichia coli", "test": "Antibacterial activity against Escherichia coli ATCC 25922 incubated for 16 to 20 hrs in presence of 10% foetal bovine serum by broth microdilution method", "assay_type": "functional", "conditions": "time 16-20 hrs"}, "[23]": {"system": "Escherichia coli", "test": "Antibacterial activity against Escherichia coli ATCC 25922 incubated for 16 to 20 hrs in presence of 50% foetal bovine serum by broth microdilution method", "assay_type": "functional", "conditions": "time 16-20 hrs"}, "[24]": {"system": "Staphylococcus aureus", "test": "Antibacterial activity against Staphylococcus aureus ATCC 29213 at pH 8.6 incubated for 16 to 20 hrs in absence of foetal bovine serum by broth microdilution method", "assay_type": "functional", "conditions": "time 16-20 hrs"}, "[25]": {"system": "Staphylococcus aureus", "test": "Antibacterial activity against Staphylococcus aureus ATCC 29213 at pH 8.6 incubated for 16 to 20 hrs in presence of 25% foetal bovine serum by broth microdilution method", "assay_type": "functional", "conditions": "time 16-20 hrs"}, "[26]": {"test": "Genotoxicity in Salmonella typhimurium TA100 assessed as number of revertants at 4x10^-5 mg/plate incubated for 72 hrs in presence of liver S9 fraction by Ames test (reference value: 204.33 +/- 8.14)", "assay_type": "toxicity, subcellular", "conditions": "salmonella enterica subsp. enterica serovar typhimurium, s9, 72 h"}, "[27]": {"test": "Genotoxicity in Salmonella typhimurium TA100 assessed as number of revertants at 8x10^-6 mg/plate incubated for 72 hrs in presence of liver S9 fraction by Ames test (reference value: 204.33 +/- 8.14)", "assay_type": "toxicity, subcellular", "conditions": "salmonella enterica subsp. enterica serovar typhimurium, s9, 72 h"}, "[28]": {"test": "Genotoxicity in Salmonella typhimurium TA102 assessed as number of revertants at 2x10^-4 mg/plate incubated for 72 hrs in absence of liver S9 fraction by Ames test (reference value: 386.67 +/- 23.44)", "assay_type": "toxicity", "conditions": "salmonella enterica subsp. enterica serovar typhimurium, s9, 72 h"}, "[29]": {"test": "Genotoxicity in Salmonella typhimurium TA102 assessed as number of revertants at 1.6x10^-6 mg/plate incubated for 72 hrs in absence of liver S9 fraction by Ames test (reference value: 386.67 +/- 23.44)", "assay_type": "toxicity", "conditions": "salmonella enterica subsp. enterica serovar typhimurium, s9, 72 h"}, "[30]": {"test": "Genotoxicity in Salmonella typhimurium TA102 assessed as number of revertants at 1x10^-3 mg/plate incubated for 72 hrs in presence of liver S9 fraction by Ames test (reference value: 465.33 +/- 18.04)", "assay_type": "toxicity, subcellular", "conditions": "salmonella enterica subsp. enterica serovar typhimurium, s9, 72 h"}, "[31]": {"test": "Genotoxicity in Salmonella typhimurium TA1535 assessed as number of revertants at 2x10^-4 mg/plate incubated for 72 hrs in absence of liver S9 fraction by Ames test (reference value: 14.33 +/- 0.58)", "assay_type": "toxicity", "conditions": "salmonella enterica subsp. enterica serovar typhimurium, s9, 72 h"}, "[32]": {"test": "Genotoxicity in Salmonella typhimurium TA1537 assessed as number of revertants at 8x10^-6 mg/plate incubated for 72 hrs in absence of liver S9 fraction by Ames test (reference value: 22.67 +/- 2.52)", "assay_type": "toxicity", "conditions": "salmonella enterica subsp. enterica serovar typhimurium, s9, 72 h"}, "[33]": {"test": "Genotoxicity in Salmonella typhimurium TA1537 assessed as number of revertants at 1.6x10^-6 mg/plate incubated for 72 hrs in absence of liver S9 fraction by Ames test (reference value: 22.67 +/- 2.52)", "assay_type": "toxicity", "conditions": "salmonella enterica subsp. enterica serovar typhimurium, s9, 72 h"}, "[34]": {"test": "Genotoxicity in Salmonella typhimurium TA1537 assessed as number of revertants at 1x10^-3 mg/plate incubated for 72 hrs in presence of liver S9 fraction by Ames test (reference value: 20 +/- 5)", "assay_type": "toxicity, subcellular", "conditions": "salmonella enterica subsp. enterica serovar typhimurium, s9, 72 h"}, "[35]": {"test": "Genotoxicity in Salmonella typhimurium TA1537 assessed as number of revertants at 2x10^-4 mg/plate incubated for 72 hrs in presence of liver S9 fraction by Ames test (reference value: 20 +/- 5)", "assay_type": "toxicity, subcellular", "conditions": "salmonella enterica subsp. enterica serovar typhimurium, s9, 72 h"}}, "note": "Calls of active or inactive are those of the source. The rule behind the calls is not given here.", "data": [{"smiles": "CC[C@H]1OC(=O)C[C@@H](O)[C@H](C)[C@@H](O[C@@H]2O[C@H](C)[C@@H](O)[C@H](N(C)C)[C@H]2O)[C@@H](CCN(C)Cc2cn(-c3cnc4ccccc4c3)nn2)C[C@@H](C)C(=O)/C=C/C(C)=C/[C@@H]1CN1CCCCCC1", "values": [{"measurement": "Activity", "setting": "[1]", "result": 45.67}, {"measurement": "Activity", "setting": "[2]", "result": 40.33}, {"measurement": "Activity", "setting": "[3]", "result": 44.33}, {"measurement": "Activity", "setting": "[4]", "result": 63.33}, {"measurement": "Activity", "setting": "[5]", "result": 62.33}, {"measurement": "Activity", "setting": "[6]", "result": 61.33}, {"measurement": "Activity", "setting": "[7]", "result": "Non-Toxic"}, {"measurement": "Activity", "setting": "[8]", "result": "Active"}, {"measurement": "MIC", "setting": "[9]", "result": 0.0625, "unit": "µg/mL"}, {"measurement": "MIC", "setting": "[10]", "result": 4, "unit": "µg/mL"}, {"measurement": "MIC", "setting": "[11]", "result": 1, "unit": "µg/mL"}, {"measurement": "MIC", "setting": "[12]", "result": 1, "unit": "µg/mL"}, {"measurement": "MIC", "setting": "[13]", "result": 0.25, "unit": "µg/mL"}, {"measurement": "MIC", "setting": "[14]", "result": 0.25, "unit": "µg/mL"}, {"measurement": "MIC", "setting": "[15]", "result": 0.5, "unit": "µg/mL"}, {"measurement": "MBC", "setting": "[16]", "result": 2, "unit": "µg/mL"}, {"measurement": "MBC", "setting": "[17]", "result": 0.25, "unit": "µg/mL"}, {"measurement": "MIC", "setting": "[18]", "result": 0.125, "unit": "µg/mL"}, {"measurement": "MIC", "setting": "[19]", "result": 4, "unit": "µg/mL"}, {"measurement": "MIC", "setting": "[20]", "result": "≤ 0.0625", "unit": "µg/mL"}, {"measurement": "MIC", "setting": "[21]", "result": "≤ 0.0625", "unit": "µg/mL"}, {"measurement": "MIC", "setting": "[22]", "result": 2, "unit": "µg/mL"}, {"measurement": "MIC", "setting": "[23]", "result": 4, "unit": "µg/mL"}, {"measurement": "MIC", "setting": "[24]", "result": 0.25, "unit": "µg/mL"}, {"measurement": "MIC", "setting": "[25]", "result": 1, "unit": "µg/mL"}, {"measurement": "Activity", "setting": "[26]", "result": 162}, {"measurement": "Activity", "setting": "[27]", "result": 167}, {"measurement": "Activity", "setting": "[28]", "result": 449.33}, {"measurement": "Activity", "setting": "[29]", "result": 371.33}, {"measurement": "Activity", "setting": "[30]", "result": 449.33}, {"measurement": "Activity", "setting": "[31]", "result": 10.33}, {"measurement": "Activity", "setting": "[32]", "result": 21.33}, {"measurement": "Activity", "setting": "[33]", "result": 14.33}, {"measurement": "Activity", "setting": "[34]", "result": 15.67}, {"measurement": "Activity", "setting": "[35]", "result": 15}]}]}
